Test results reported in publication PMC6886544.

Tests used:
FGR = FGR (Homo sapiens, UniProt P09769); experiment: SelectScreen kinase profiling, FGR; type: biochemical; details: mean ± SD of one measurement in duplicates
Protocol: (§1) Kinase profiling of compound 17a at a concentration of 1 µM generated with the SelectScreen® Profiling Service from Life Technologies.
(§2) Figure S2. Kinase profiling of compound 17a, Illustration as waterfall plot. 9 Kinases harboring a Cysteine isostructural to Cys797 in EGFR are highlighted
(§3) Kinase % inhibition Kinase % inhibition […]
(§4) aValues are the mean ± SD of one measurement in duplicates; bKinases harboring a Cysteine isostructural to Cys797 […]
(§5) (1 picture or pasted object on this page, not shown here)

[1] = tested on: EGFR and downstream cascade phosphorylation in H1975 cells; experiment: Western blot analysis in H1975 cells; type: cell-based; details: 1 h inhibitor then EGF stimulation
Protocol: (§6) and incubated at 37 °C and 5% CO2. On day 2 cells were starved over night with media containing 0.5% FBS to be incubated on day 3 for 1 h with EGFR inhibitors following an additional 30 min of EGF stimulation at 50 ng/mL. The media was discarded and cells were washed once with DPBS
(§7) 1x. Using 100 μL per well of lysis buffer, cells were then scraped off and lysed while rotating (Stuart Scientific, Staffordshire, UK) for 1 h at 4 °C. […] Supernatant was transferred into new tube and protein concentrations were determined with the Bio-Rad Protein Assay (Bio-Rad Laboratories, Hercules, CA). […]
(§8) captured and quantified using a FUJI LAS3000 system with Science Lab 2001 ImageGauge 4.0 software (Fujifilm Medial Systems, Stamford CT, USA). […]
(§9) glycerol, 1 mM TCEP, pH 8) on ice for 1 h. We analyzed the aliquots by ESI-MS using an Thermo Fisher Scientific Dionex UltiMate 3000 HPLC system connected to a Thermo Fisher Scientific Velos Pro (2d ion trap). Therefore, 5 μL of sample was injected and separated using a Vydac 214TP C4 5 μm column (150 mm x 2.1 mm) starting at 20% of solvent B for 5 minutes followed by a gradient up to 90% of solvent B over 14 min with a flow rate of 210 μL/min with 0.1% TFA in water as solvent A and 0.1% TFA in MeCN as solvent B. A mass range of 700 to 2000 m/z was scanned and raw data was deconvoluted and analyzed with MagTran software (Z.Q. Zhang, A.G. […]

EGFR-T790M [2] = biological target: T1, EGFR-T790M (Homo sapiens, UniProt P00533, T790M); experiment: SelectScreen kinase profiling, EGFR-T790M; type: biochemical; details: mean ± SD of one measurement in duplicates
Protocol: as §1, §2, §3, §4, §5
Target sequence in this assay (P00533 25-1210 T790M): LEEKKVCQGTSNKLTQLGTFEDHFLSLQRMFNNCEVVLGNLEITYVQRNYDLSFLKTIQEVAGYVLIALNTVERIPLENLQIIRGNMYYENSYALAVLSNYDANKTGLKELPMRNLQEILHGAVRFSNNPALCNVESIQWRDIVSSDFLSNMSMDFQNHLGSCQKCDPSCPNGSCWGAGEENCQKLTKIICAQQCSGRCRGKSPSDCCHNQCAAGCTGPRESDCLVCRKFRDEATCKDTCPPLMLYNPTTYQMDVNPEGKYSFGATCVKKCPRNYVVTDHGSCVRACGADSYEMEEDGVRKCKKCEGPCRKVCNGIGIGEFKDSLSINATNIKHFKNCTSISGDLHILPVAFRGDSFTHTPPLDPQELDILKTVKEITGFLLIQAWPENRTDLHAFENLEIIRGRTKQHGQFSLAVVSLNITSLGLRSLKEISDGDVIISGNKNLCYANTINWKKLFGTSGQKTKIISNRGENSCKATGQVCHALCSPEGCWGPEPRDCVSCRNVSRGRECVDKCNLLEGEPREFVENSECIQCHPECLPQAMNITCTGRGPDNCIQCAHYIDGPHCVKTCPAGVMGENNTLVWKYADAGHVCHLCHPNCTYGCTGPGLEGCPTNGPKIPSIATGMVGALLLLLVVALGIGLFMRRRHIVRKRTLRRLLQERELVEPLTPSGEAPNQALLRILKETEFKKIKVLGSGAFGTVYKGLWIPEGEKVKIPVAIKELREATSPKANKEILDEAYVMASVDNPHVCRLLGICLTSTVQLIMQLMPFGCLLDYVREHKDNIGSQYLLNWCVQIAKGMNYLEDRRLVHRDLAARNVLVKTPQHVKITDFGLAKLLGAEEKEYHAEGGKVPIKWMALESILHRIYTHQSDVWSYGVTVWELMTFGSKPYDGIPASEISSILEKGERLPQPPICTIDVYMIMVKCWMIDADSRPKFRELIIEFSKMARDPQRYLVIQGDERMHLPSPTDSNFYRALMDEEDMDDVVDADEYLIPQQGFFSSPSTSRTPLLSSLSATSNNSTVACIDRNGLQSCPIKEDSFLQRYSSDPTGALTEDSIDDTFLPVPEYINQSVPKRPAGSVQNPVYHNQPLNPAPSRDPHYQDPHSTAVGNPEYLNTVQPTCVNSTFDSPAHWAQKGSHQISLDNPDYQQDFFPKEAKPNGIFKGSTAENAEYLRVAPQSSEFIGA

100 kinases = experiment: Kinase selectivity profiling with 100 kinases (SelectScreen); type: biochemical; details: screening concentration 1 μM
Protocol: as §1, §2, §3, §4, §5

[3] = tested on: EGFR and downstream cascade phosphorylation in A431 cells; experiment: Western blot analysis in A431 cells; type: cell-based; details: 1 h inhibitor then EGF stimulation
Protocol: as §6, §7, §8, §9

ROS1 = ROS1 (Homo sapiens, UniProt P08922); experiment: SelectScreen kinase profiling, ROS1; type: biochemical; details: mean ± SD of one measurement in duplicates
Protocol: as §1, §2, §3, §4, §5

EGFR-T790M [4] = biological target: T1, EGFR-T790M; experiment: Mass spectrometry analysis of covalent bond formation; type: binding; parameters: made in house; host or cells: Sf9 insect cells (BacMagic system); details: EGFR-T790M incubated with inhibitor on ice for 1 h
Text: captured and quantified using a FUJI LAS3000 system with Science Lab 2001 ImageGauge 4.0 software (Fujifilm Medial Systems, Stamford CT, USA).
Rabbit antibodies specific for phospho-EGFR (Tyr1045), EGFR, Akt, phospho-Akt (Ser473), p42/44 mitogen-activated protein kinase (MAPK), phospho-p44/42 MAPK (Thr202/Tyr204), S6 ribosomal protein, phospho-S6 ribosomal protein (Ser235/236), mouse anti-β-actin antibody as well as HRP-conjugated anti-rabbit and anti-mouse secondary antibodies were purchased from Cell Signaling (Frankfurt, Germany; Beverly, MA).
Mass spectrometry experiments.
We used the drug-resistant mutant EGFR-T790M variant for MS experiments. We incubated a […]
as §9
Target sequence in this assay (P00533 712-979 T790M limits assumed): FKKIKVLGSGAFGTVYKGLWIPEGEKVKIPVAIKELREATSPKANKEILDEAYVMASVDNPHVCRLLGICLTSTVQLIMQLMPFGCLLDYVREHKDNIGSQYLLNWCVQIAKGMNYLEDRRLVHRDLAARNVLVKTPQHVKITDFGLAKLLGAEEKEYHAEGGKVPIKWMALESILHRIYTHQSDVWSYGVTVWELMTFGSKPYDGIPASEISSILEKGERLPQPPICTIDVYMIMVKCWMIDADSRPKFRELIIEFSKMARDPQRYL

Sequence of FGR (P09769 whole entry): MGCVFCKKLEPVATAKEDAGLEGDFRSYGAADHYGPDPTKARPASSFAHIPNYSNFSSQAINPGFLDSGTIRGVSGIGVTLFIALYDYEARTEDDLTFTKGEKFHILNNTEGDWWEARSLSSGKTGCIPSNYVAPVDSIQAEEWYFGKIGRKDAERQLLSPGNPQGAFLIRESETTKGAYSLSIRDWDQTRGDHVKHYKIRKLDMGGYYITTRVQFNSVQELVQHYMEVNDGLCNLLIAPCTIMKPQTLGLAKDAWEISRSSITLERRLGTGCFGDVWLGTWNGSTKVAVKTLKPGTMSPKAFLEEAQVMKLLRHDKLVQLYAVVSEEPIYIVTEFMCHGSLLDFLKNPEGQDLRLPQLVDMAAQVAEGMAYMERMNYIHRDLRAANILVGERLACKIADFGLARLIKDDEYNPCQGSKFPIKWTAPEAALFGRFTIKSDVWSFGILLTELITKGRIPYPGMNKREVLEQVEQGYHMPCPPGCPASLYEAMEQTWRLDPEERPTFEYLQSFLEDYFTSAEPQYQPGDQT
Sequence of ROS1 (P08922 28-2347): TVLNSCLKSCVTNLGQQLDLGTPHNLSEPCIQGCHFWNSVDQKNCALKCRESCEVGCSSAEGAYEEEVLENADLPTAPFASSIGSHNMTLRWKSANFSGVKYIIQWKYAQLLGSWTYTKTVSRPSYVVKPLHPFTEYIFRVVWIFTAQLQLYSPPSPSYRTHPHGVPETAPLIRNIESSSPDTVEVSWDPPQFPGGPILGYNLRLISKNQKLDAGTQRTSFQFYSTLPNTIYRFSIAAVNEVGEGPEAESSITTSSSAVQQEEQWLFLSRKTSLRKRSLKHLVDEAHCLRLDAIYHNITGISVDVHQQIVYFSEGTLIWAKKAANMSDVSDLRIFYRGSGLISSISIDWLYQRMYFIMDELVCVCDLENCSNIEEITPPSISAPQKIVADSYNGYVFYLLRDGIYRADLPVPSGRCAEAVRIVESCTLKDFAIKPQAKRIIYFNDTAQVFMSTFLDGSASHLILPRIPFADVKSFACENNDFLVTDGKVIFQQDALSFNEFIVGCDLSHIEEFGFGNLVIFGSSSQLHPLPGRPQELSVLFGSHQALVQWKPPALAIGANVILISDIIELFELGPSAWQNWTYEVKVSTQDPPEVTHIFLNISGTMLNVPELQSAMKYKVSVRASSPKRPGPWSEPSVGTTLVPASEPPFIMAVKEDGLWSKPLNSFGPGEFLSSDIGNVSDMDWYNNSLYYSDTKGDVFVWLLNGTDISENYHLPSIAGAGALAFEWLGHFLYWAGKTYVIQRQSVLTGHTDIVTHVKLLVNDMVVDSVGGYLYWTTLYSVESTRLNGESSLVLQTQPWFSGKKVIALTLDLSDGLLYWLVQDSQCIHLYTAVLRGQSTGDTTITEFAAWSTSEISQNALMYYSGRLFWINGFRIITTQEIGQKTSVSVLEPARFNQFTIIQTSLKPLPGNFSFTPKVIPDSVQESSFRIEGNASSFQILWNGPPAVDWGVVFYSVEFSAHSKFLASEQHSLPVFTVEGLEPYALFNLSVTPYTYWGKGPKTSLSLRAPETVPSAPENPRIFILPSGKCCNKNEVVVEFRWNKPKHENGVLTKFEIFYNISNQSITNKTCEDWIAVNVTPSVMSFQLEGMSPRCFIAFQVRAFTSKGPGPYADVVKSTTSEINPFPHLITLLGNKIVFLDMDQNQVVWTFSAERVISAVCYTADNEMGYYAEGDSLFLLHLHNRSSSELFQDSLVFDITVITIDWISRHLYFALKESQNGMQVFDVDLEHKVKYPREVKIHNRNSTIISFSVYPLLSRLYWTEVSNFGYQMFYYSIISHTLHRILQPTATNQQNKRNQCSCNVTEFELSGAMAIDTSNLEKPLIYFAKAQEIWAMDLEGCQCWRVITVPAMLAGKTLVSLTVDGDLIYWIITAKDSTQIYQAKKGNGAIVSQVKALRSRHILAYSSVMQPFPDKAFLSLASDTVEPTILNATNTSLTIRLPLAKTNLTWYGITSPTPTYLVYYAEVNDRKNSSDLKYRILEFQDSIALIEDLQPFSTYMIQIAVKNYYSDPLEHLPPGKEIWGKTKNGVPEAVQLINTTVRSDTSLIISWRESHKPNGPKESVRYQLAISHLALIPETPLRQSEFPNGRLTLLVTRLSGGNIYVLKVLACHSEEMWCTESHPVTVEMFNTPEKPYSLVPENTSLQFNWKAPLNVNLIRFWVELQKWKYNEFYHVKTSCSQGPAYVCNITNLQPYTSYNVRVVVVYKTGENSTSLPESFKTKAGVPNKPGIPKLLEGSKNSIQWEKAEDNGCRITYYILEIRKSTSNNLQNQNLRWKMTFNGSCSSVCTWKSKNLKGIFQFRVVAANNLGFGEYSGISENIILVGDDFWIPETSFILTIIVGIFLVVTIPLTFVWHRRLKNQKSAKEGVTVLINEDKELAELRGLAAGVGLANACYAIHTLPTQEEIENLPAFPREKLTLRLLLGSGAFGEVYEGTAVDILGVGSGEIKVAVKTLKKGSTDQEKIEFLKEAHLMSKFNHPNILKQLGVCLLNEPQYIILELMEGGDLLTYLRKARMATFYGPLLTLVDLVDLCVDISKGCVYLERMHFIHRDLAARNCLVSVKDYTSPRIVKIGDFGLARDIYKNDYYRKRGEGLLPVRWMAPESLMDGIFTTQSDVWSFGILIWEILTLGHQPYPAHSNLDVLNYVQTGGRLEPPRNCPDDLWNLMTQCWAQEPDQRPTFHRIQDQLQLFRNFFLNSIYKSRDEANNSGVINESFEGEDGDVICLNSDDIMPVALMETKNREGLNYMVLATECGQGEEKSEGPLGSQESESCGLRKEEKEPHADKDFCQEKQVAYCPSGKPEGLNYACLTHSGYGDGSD

Compound	inhibition at 1 µM (FGR) [%]	concentration at which phosphorylation of EGFR and downstream proteins was reduced/inhibited [1]	inhibition at 1 µM (EGFR-T790M [2]) [%]	kinases with inhibitory activity of ≥70% (100 kinases)	concentration at which phosphorylation of EGFR and downstream proteins was reduced [3]	inhibition at 1 µM (ROS1) [%]	covalent labelling by tandem mass spectrometry (EGFR-T790M [4])
C=CC(=O)Nc1cccc(-c2c(-c3ccc(CN4CCN(C)CC4)cc3)[nH]c3ncnc(OC)c23)c1 [Compound 17a]	92 ± 1	around 100 nM	89 ± 2	21 kinases and 8 mutant variants	about 1 μM	92	–
C=CC(=O)Nc1cccc(-c2c(-c3ccc(N4CCN(C)CC4)cc3)[nH]c3ncnc(OCC(C)C)c23)c1 [Compound 19h]	–	–	–	–	–	–	specific single alkylation of Cys797
